Here are results for 88 sequences from the OligoGym collection.

After the bases stand the sugars from the 5' end (letter, count) and the backbone: PS all phosphorothioate, else s phosphorothioate and o phosphodiester by linkage. Methylation of C is not given here. e = 2'-O-(2-methoxyethyl) (MOE); k = constrained ethyl (cEt); d = 2'-deoxy (DNA); m = 2'-O-methyl

The target of this data set is HSD17B13. The following applies: ASO, HepaRG.

AGGCTTATGAAGTTAG (sugars k3 d10 k3, PS) came in with a target mRNA inhibition (1 µM) of 57%. Still for that read-out and setting: under “AGGCUAGGGAAATCTT (sugars k3 d1 m1 d8 k3, PS)” stands 41%; under AGGGAATGTTATGTAC (sugars k3 d10 k3, PS), 49%. For AGGGAGACCATGCTGC (sugars k3 d10 k3, PS), the target mRNA inhibition reads like this: (0.02 µM) 10%; (0.078 µM) 28%; (0.313 µM) 52%; (1 µM) 79%; (1.25 µM) 59%; (5 µM) 79%. In turn, AGGGTCCACTTTTGGT (sugars k3 d10 k3, PS) returned a target mRNA inhibition (1 µM) of 11%.

Regarding “AGGTAGCTTTTGTCCA (sugars k3 d9 k3 e1, PS)”, the target mRNA inhibition (1 µM) worked out at 58%. For the setting “1 µM”, AGGTAGCTTTTGTCCA (sugars k3 d10 k3, PS) came in with a target mRNA inhibition of 56%. “AGGTAGCTTTTGTCCA (sugars kkdddddddddkekek, PS)” yielded a target mRNA inhibition (1 µM) of 26%. On to AGTAATTCTAAACTAG (sugars k3 d10 k3, PS), for which the target mRNA inhibition (1 µM) worked out at 31%. Sequence AGTACCAAGACACTAA (sugars k3 d10 k3, PS) displayed a target mRNA inhibition (1 µM) of 66%.

On to “AGTAGTGTAAGCTGAG (sugars k3 d9 k3 e1, PS)”, for which the target mRNA inhibition (1 µM) came to 71%. With “AGTCGGTCACCTTTCA (sugars k3 d1 m1 d8 k3, PS)”, the target mRNA inhibition (1 µM) came to 61%. “AGTCGGTCACCTTTCA (sugars kkdddddddddkekek, PS)” gave a target mRNA inhibition (1 µM) of 55%. The same measure, in the same setting: the result for AGTCTGCCTGCCTATT (sugars k3 d10 k3, PS) reads 47%; that for “AGTCTTAAACCTTCCC (sugars kkdddddddddkekek, PS)”, 43%; that for “AGTGCATCTTAAGATA (sugars k3 d1 m1 d8 k3, PS)”, 17%.

Under “1 µM”, “AGTGCCAAACCAATGT (sugars k3 d9 k3 e1, PS)” showed a target mRNA inhibition of 60%. With “AGTGCCAAACCAATGT (sugars kkdddddddddkekek, PS)”, the target mRNA inhibition was 13% (0.02 µM); 2% (0.078 µM); 40% (0.313 µM); 71% (1 µM); 61% (1.25 µM); 83% (5 µM). On to AGTGCTAAGTAGTAAT (sugars k3 d10 k3, PS), for which the target mRNA inhibition (1 µM) came to 71%. AGTTAGAATAGTCTTC (sugars k3 d10 k3, PS) had a target mRNA inhibition (1 µM) of 67%. The same measure, in the same setting: under AGTTAGCAGCTAAAAT (sugars k3 d10 k3, PS) stands 33%; under “AGTTAGTATAGTTATC (sugars k3 d9 k3 e1, PS)”, 47%. As for AGTTAGTATAGTTATC (sugars k3 d10 k3, PS), the target mRNA inhibition came to 35% (0.02 µM); 35% (0.078 µM); 60% (0.313 µM); 74% (1 µM); 68% (1.25 µM); 84% (5 µM). Sequence “AGTTATTAGAAGTCAG (sugars k3 d9 k3 e1, PS)” displayed a target mRNA inhibition (1 µM) of 56%. On the same count and under the same terms, under AGTTTCCTCCACACCG (sugars k3 d10 k3, PS) stands 28%. AGTTTTCACCTCAGGT (sugars k3 d10 k3, PS) came in with a target mRNA inhibition (1 µM) of 82%.

Under “1 µM”, AGTTTTCGGCACTCAG (sugars k3 d10 k3, PS) returned a target mRNA inhibition of 16%.

In turn, ATAACCATAGGACATG (sugars k3 d10 k3, PS) yielded a target mRNA inhibition (0.02 µM) of 37%; a target mRNA inhibition (0.078 µM) of 38%; a target mRNA inhibition (0.313 µM) of 58%; a target mRNA inhibition (1 µM) of 70%; a target mRNA inhibition (1.25 µM) of 84%; a target mRNA inhibition (5 µM) of 92%. ATAACTCTATTGATTG (sugars k3 d10 k3, PS): where the note is “1 µM”, the target mRNA inhibition was determined as 39%. On the same count and under the same terms, under ATAAGAGATGAGTAGG (sugars k3 d10 k3, PS) stands 56%; under ATAATACATTAGCAAG (sugars k3 d10 k3, PS), 7%. The sequence ATAATCTTGTGCTTGG (sugars k3 d10 k3, PS) returned a target mRNA inhibition (1 µM) of 36%. As for ATAATTACAACCTGGT (sugars k3 d10 k3, PS), the target mRNA inhibition (1 µM) is 44%. The same measure, in the same setting: the result for ATACATACCACTCTTC (sugars k3 d10 k3, PS) reads 18%; that for “ATACATTAGCAAGCTA (sugars k3 d1 m1 d8 k3, PS)”, 36%. Same read-out and setting: under ATACATTAGCAAGCTA (sugars k3 d10 k3, PS) stands 69%; under ATACGCATGCGCAGTG (sugars k3 d10 k3, PS), 38%; under ATACTGAAATTGATAC (sugars k3 d10 k3, PS), 11%.

In the case of ATAGAACTAGAACTCC (sugars k3 d10 k3, PS), where the note is “1 µM”, the target mRNA inhibition was determined as 22%. As to “ATAGAGTCGGTCACCT (sugars kkdddddddddkekek, PS)”, where the note is “1 µM”, the target mRNA inhibition came out at 56%. “ATAGAGTTGCACCGTT (sugars kkdddddddddkekek, PS)” returned a target mRNA inhibition (1 µM) of 45%. Same read-out and setting: the result for ATAGATCCTTTTTTGG (sugars k3 d10 k3, PS) reads 6%; that for “ATAGCAAGCCAACAGA (sugars kkdddddddddkekek, PS)”, 23%. For the sequence ATAGCTAAGTATACTT (sugars k3 d10 k3, PS), the target mRNA inhibition (1 µM) is 0%.

ATAGGAGAGTCTTTCA (sugars k3 d10 k3, PS): the target mRNA inhibition (1 µM) stood at 77%. Same read-out and setting: under ATAGGCTAAAATGGTC (sugars k3 d10 k3, PS) stands 61%; under ATAGTAATCACAAGTA (sugars k3 d10 k3, PS), 56%; under ATAGTCCATGCAAAAG (sugars k3 d10 k3, PS), 43%. Still for that read-out and setting: under ATAGTTATCTTCTCAC (sugars k3 d10 k3, PS) stands 48%; under ATATAACATGGCTGGC (sugars k3 d10 k3, PS), 29%. The same measure, in the same setting: the result for ATATACATCAACTCCT (sugars k3 d10 k3, PS) reads 43%; that for ATATACTAGGATTAGA (sugars k3 d10 k3, PS), 33%; that for ATATACTGTCCCAGCA (sugars k3 d10 k3, PS), 43%. For the sequence ATATATACCTGTTGCC (sugars k3 d10 k3, PS), the target mRNA inhibition (1 µM) is 28%.

In the case of ATATCCAGTAGGTGTG (sugars k3 d10 k3, PS), the target mRNA inhibition (1 µM) came to 55%. In turn, ATATGGGATGAGGTAA (sugars k3 d10 k3, PS) gave a target mRNA inhibition (1 µM) of 37%. “ATATTCTGTGGCATGG (sugars k3 d9 k3 e1, PS)” showed a target mRNA inhibition (1 µM) of 58%.

Regarding ATATTCTGTGGCATGG (sugars k3 d10 k3, PS), the target mRNA inhibition (1 µM) was determined as 69%.

For the sequence ATATTGTTTAGCTGAT (sugars k3 d10 k3, PS), where the note is “1 µM”, the target mRNA inhibition was 14%.

As for ATCAAAATGGTGGCGA (sugars k3 d10 k3, PS), the target mRNA inhibition (1 µM) was found to be 20%. In the case of “ATCAAGACATTCTAGC (sugars kkdddddddddkekek, PS)”, under “1 µM”, the target mRNA inhibition amounted to 30%.

For ATCATACCACATACCC (sugars k3 d10 k3, PS), where the note is “1 µM”, the target mRNA inhibition worked out at 45%.

Take ATCATCGATGGAAGAA (sugars k3 d10 k3, PS): the target mRNA inhibition (1 µM) came out at 30%.

Consider ATCCAGTAGGTGTGTT (sugars k3 d10 k3, PS), for which the target mRNA inhibition (1 µM) was 41%. The same measure, in the same setting: the result for ATCCATATTCCCTGAT (sugars k3 d10 k3, PS) reads 26%; that for ATCCTACATGTAAGGT (sugars k3 d10 k3, PS), 24%; that for ATCGATGGAAGAAGTG (sugars k3 d10 k3, PS), 39%. On the same count and under the same terms, under ATCGGCTGGATATACT (sugars k3 d10 k3, PS) stands 10%; under ATCTAGAATTAAGGGC (sugars k3 d10 k3, PS), 41%. Still for that read-out and setting: under ATCTAGCAACCTCTAT (sugars k3 d10 k3, PS) stands 12%; under “ATCTATCAGACTTCTT (sugars k3 d1 m1 d8 k3, PS)”, 34%; under “ATCTCTGGGACCAAGG (sugars kkdddddddddkekek, PS)”, 65%. ATCTTAAGGATCATTG (sugars k3 d10 k3, PS): the target mRNA inhibition (1 µM) was determined as 7%. “ATCTUATAAGACTATA (sugars k3 d1 m1 d8 k3, PS)”: the target mRNA inhibition (1 µM) worked out at 35%. The same measure, in the same setting: the result for ATGACATAGACATGTG (sugars k3 d10 k3, PS) reads 23%. On the same count and under the same terms, under ATGATGTTCATGGCTT (sugars k3 d10 k3, PS) stands 72%; under ATGATTGAATTCACTA (sugars k3 d10 k3, PS), 33%. ATGCAGCTATAGGTAG (sugars k3 d10 k3, PS): under “1 µM”, the target mRNA inhibition came to 41%. Still for that read-out and setting: the result for ATGCATAAGAGATGAG (sugars k3 d10 k3, PS) reads 30%. On the same count and under the same terms, the result for ATGCCAAGCTTTGTGT (sugars k3 d10 k3, PS) reads 50%; that for “ATGCTACTTGAACAGT (sugars k3 d9 k3 e1, PS)”, 50%. On the same count and under the same terms, the result for ATGCTAGTAATTGCAT (sugars k3 d10 k3, PS) reads 16%; that for ATGGAAACATGCTTGG (sugars k3 d10 k3, PS), 48%; that for “ATGGCTACAGATTGGA (sugars k3 d9 k3 e1, PS)”, 65%. As to ATGGCTTAATTTTCGG (sugars k3 d10 k3, PS), the target mRNA inhibition (1 µM) is 33%. Same read-out and setting: under ATGTCCAGGTTGAGAT (sugars k3 d10 k3, PS) stands 55%; under ATGTTCATGGCTTTGC (sugars k3 d10 k3, PS), 73%; under ATGTTTATGTAAGCAC (sugars k3 d10 k3, PS), 70%.
